“Also recorded” adds a separate entry of the source.
Assays:
[1] = test system: A2780 ovarian cancer cells; assay: Western blot protein expression; type: cell-based, human; settings: for ATF3 protein expression compared to control / HPD protein expression compared to control / NMDAR2C protein expression compared to control / RAB27A protein expression compared to control / SLC39A3 (ZIP3) protein expression compared to control / SQSTM1 protein expression compared to control: 24 hrs treatment, Western blot
Method: A2780 ovarian cancer cells cell line was cultured in 60 or 100 mm^3 cell culture dishes. Once the plated were 80% confluent, the cells were incubated in the presence and absence of either R,R-D2 or R,R-D4. After 24 hrs of drug treatment, proteins were extracted from the cells using 200-500 μl of either RIPA or MPER protein extraction reagent buffer or both. Halt protease inhibitor cocktail from Thermo Fisher was added to the protein extraction reagents. The protein concentration was measured using BCA kit from Promega. The freshly extracted proteins (40 to 50 μg) were run on a 4-12% or 4-20% tris-glycine gels, at 120 V for 2 to 3 hours after which the proteins were transferred onto nitrocellulose membranes for one hour. Then the blots were incubated in 5% milk. The following primary antibodies were incubated overnight in 5% milk. These antibodies include: mouse anti-rabbit IgG-FITC, mouse anti-goat IgG-PE, anti-mouse IgG2a-PE, SQSTM1 (D-3), Egr-2 (H-220), ZIP3 (D-14), TOX1 (T-12), ATF-3 (H-90), NMDAμ4 (C-20), HPPD (H-300), Fos B (C-20), PPT2 (C-18), Hep G2 Cell Lysate, TMEM106B (C-12), xCT (Q-18) after which the proteins were detected by species-specific HRP-conjugated secondary antibody using ECL chemiluminescence kit purchased from GE health care.
To confirm that the modulation of the genes listed in Table 1, following treatment with RRD2 and RRD4 in the human ovarian cancer cell line, A2780, also affects the protein expression of these genes, some representative genes from Table 1 were assessed for their corresponding protein expression as measured by Western Blot using protein specific antibodies. The protein expressions for HPD, SQSTM1, ATF3, NMDAR2C were higher compared to the control samples while RAB27A and SLC39A3 (ZIP3) expressions were lower than the control samples following treatment with the aforementioned compounds (FIGS. 4A-4B). Note that HPD and NMDAR2C were calibrated against both actin and GADPH (FIG. 4C). As indicated in the Tables, overexpressed proteins/genes are implicated in protecting neurons from a variety of neurodegenerative diseases.

[2] = test system: Human Ovarian cancer cells, A2780; assay: CHIP array: whole genome expression (HumanHT-12 v4.0 BeadChip); type: cell-based; settings: 12 or 24 hours, vs control or untreated cells; for Fold change expression of ATF / Fold change expression of NMDAR2C: direction ↑; for Fold change expression of RAB27A / Fold change expression of SLC39A3: direction ↓
Method: Human Ovarian cancer cells, A2780, were treated with compound and different concentration for 12 or 24 hours. The total RNA from the treated human cells were extracted by Trizol (Invitrogen) and purified by Rneasy Mini kit (Qiagen, Valencia, Calif.). The concentration and integrity of all RNA samples were assessed using the NanoDrop ND-2000 spectrophotometer (NanoDrop Technologies, Wilmington, Del.) and the Bioanalyzer 2100 system (Agilent Technologies, Santa Clara, Calif.). 1 ug of total RNA from each sample were subjected to whole-genome gene expression analysis at the Microarray Core Facility of University of Texas Southwestern Medical Center (https://microarray.swmed.edu) using the HumanHT-12 v4.0 BeadChip (Illumina, San Diego, Calif.) according to the manufacturer's instructions. Microarray data were extracted using BeadStudio v3.1 software, background-subtracted, and normalized using a cubic spline algorithm. Genes differentially expressed between groups were identified using the Illumina custom error model implemented in BeadStudio. […] The pathways and interaction networks that the genes involved were further analyzed by Ingenuity Pathyway analysis software (www.ingenuity.com).
The treatment of A2780, human ovarian cancer cell line at different concentrations were examined for the differential gene expression compared to the whole human genome and compared to untreated samples (controls). A representative heat map reflecting the fold change in expressions of genes modulated by RRD2 involved in neurodegenerative diseases is shown in FIG. 3. […] These genes are implicated in neurological disorders and neurodegenerative diseases and the modulation of these genes by Phosphaplatins is significant for providing neuroprotection.

[3] = test system: hippocampal slices, CA1 pyramidale layer; assay: Whole cell current-clamp recordings of action potentials in hippocampal slices; type: cell-based; settings: rat hippocampal slices perfused with 20 μM, vs control, N=6
Method: (§1) Sprague-Dawley male rats (P14-18) were deeply anesthetized with ether and after the decapitation, the brains were removed rapidly and laced in the fresh high sucrose dissection solution. After hippocampus isolation, hippocampal slices ([…]) were prepared using a Vibratome. The prepared slices were incubated in the artificial cerebrospinal fluid (ACSF) (pH 7.3) for half an hour. After incubating period, slices were transferred to recording chamber while oxygenated ACSF was continuously perfused constantly with the rate of 2 ml/min at 30° C. Borosilicate glass recording electrodes were filled with 0.9% NaCl (1-2 MΩ) and used for extracellular field potential recordings. Extracellular recordings were done from the border area between radiatum and pyramidale layers. Filled micropipettes (4-7 MΩ) containing intracellular solution were used for whole cell current-clamp recordings in the CA1 pyramidale layer. To elicit action potential activity, depolarizing square wave current pulses incremented by 20 pA were injected into the somas for 500-1000 ms, followed by 10 ms return to the baseline holding membrane potential (−80 mV). In addition, to square wave current pulses, slow depolarizing ramp-like current injections were used to quantify action potential threshold values. Neuronal membrane and field potential recordings were performed in control and in the RRD4 groups. RDD4 group brain slices were perfused with 20 μM RRD4. Zero magnesium model of inducing epileptiform activities was used in these experiments. In the treated group slices were incubated in 20 μM RRD4 for 15 minutes, and then were exposed to zero magnesium solution.
The neurodegeneration observed in many diseases has been associated with a progressive decrease in neuronal activity and synaptic dismantling is associated with many neurodegenerative diseases. A potential strategy for preventing and/or halting neurodegenerative disease is by modulating intrinsic properties of individual neurons. Applicants observed that RRD4 pretreatment increased action potential threshold (FIG. 5). Action potential threshold was measured at the beginning of the sharp upward rise of the depolarizing phase of the action potential. (*P<0.05). Based on the data, RRD4 increases action potential (AP) threshold and decreases its amplitude. […] Further, pretreated slices with RRD4 had lower peak potential amplitude (FIG. 6). Mean values for the AP amplitude is voltage difference in 10-90% rise time in each action potential. (*P<0.05).

hippocampal slices = assay: Zero magnesium model of epileptiform activity in hippocampal slices; type: cell-based, rat; settings: slices incubated in 20 μM for 15 minutes, then zero magnesium solution, N=6
Method: as §1, with “RDD4 group brain slices were perfused with 20 μM RRD4. Zero magnesium model of inducing epileptiform activities was used in these experiments. In the treated group slices were incubated in 20 μM RRD4 for 15 minutes, and then were exposed to zero magnesium solution.” left out

| SMILES | RAB27A protein expression vs untreated cells ([1]; 20 μM, FIG. 4A) | ATF3 protein expression compared to control [1] | HPD protein expression compared to control [1] | NMDAR2C protein expression compared to control [1] | RAB27A protein expression compared to control [1] | SLC39A3 (ZIP3) protein expression compared to control [1] | SQSTM1 protein expression compared to control [1] | Fold change expression of ATF [2] | Fold change expression of NMDAR2C [2] | Fold change expression of RAB27A [2] | Fold change expression of SLC39A3 [2] | RAB27A protein expression vs untreated cells ([1]; 25 μM, FIG. 4A) | SQSTM protein expression vs untreated cells ([1]; 25 μM, FIG. 4A) | Action potential (AP) amplitude [3] | Action potential (AP) threshold [3] | Input resistance [3] | Membrane depolarization in treated cells [3] | Time to seizure onset (seizure threshold, first seizure formation) (hippocampal slices) |
| --- | --- | --- | --- | --- | --- | --- | --- | --- | --- | --- | --- | --- | --- | --- | --- | --- | --- | --- |
| N[C@@H]1CCCC[C@H]1N.O=P([O-])(O)OP(=O)([O-])O.[Pt+2] [RRD2] | overexpressed in untreated cells as compared to cells treated | higher | higher | higher | lower | lower | higher | 10↑ fold | 8↑ fold | 1.7↓ fold | 2↓ fold | – | – | – | – | – | – | – |
| NC1CCCCC1N.O=P1(O)OP(=O)(O)[O][Pt]([OH])([OH])[O]1 [RRD4] | – | higher | higher | higher | lower | lower | higher | 10↑ fold | 8↑ fold | 1.7↓ fold | 2↓ fold | overexpressed in untreated cells as compared to cells treated | enhanced expression | lower; also recorded: decreased significantly | increased; also recorded: raised | no effect | significantly more depolarized | significant effect in delaying; also recorded: significantly delayed |
